From ChEMBL document CHEMBL1131160, “5-Substituted pyrimidines with a 1,5-anhydro-2, 3-dideoxy-D-arabino-hexitol moiety at N-1: synthesis, antiviral activity, conformational analysis, and interaction with viral thymidine kinase” (1998)
Values after ≈ are worked out from the molar mass of the structure shown.

What was measured:
[1] = system: Human cytomegalovirus (AD-169); experiment: Compound was evaluated for the minimum inhibition concentration required to reduce virus-induced cytopathogenicity by 50%, determined against Cytomegalovirus (AD-169) in HEL cells.
E6SM [2] = experiment: Compound was evaluated for the minimum inhibition concentration required to reduce virus-induced cytopathogenicity by 50%, determined against KOS,F,McIntyre strains of HSV-1 virus.; assay type: functional; settings: Homo sapiens
E6SM [3] = experiment: Compound was evaluated for the minimum inhibition concentration required to reduce virus-induced cytopathogenicity by 50%, determined against HSV-2 virus as means of G, 196, and Lyons strains; assay type: functional; settings: Homo sapiens
E6SM [4] = experiment: Compound was evaluated for the minimum inhibition concentration required to reduce virus-induced cytopathogenicity by 50%, determined against HSV-1 (TK-B2006) virus; assay type: functional; settings: Homo sapiens
E6SM [5] = experiment: Compound was evaluated for the minimum cytotoxic concentration required to cause a microscopically detectable alteration of normal cell morphology.; assay type: functional; settings: Homo sapiens

Structure (SMILES): C#Cc1cn(C2COC(CO)C(O)C2)c(=O)[nH]c1=O (configuration not stated)
- MIC [1]: > 50 mg/L
- MIC (E6SM [2]): 48 mg/L (≈ 180 µM)
- MIC (E6SM [3]): > 400 mg/L
- MIC (E6SM [4]): > 400 mg/L

Structure (SMILES): O=c1[nH]c(=O)n(C2COC(CO)C(O)C2)cc1Cl (configuration not stated)
- MIC [1]: > 50 mg/L
- MIC (E6SM [2]): > 400 mg/L
- MCC (E6SM [5]): > 400 µg/mL
- MIC (E6SM [3]): > 400 mg/L
- MIC (E6SM [4]): > 400 mg/L

Structure (SMILES): O=c1[nH]c(=O)n(C2COC(CO)C(O)C2)cc1C(F)(F)F (configuration not stated)
- MIC [1]: > 50 mg/L
- MIC (E6SM [2]): 0.025 mg/L (≈ 0.0806 µM)
- MCC (E6SM [5]): > 400 µg/mL
- MIC (E6SM [3]): 0.38 mg/L (≈ 1.22 µM)
- MIC (E6SM [4]): 9.8 mg/L (≈ 31.6 µM)

Structure (SMILES): CC#Cc1cn(C2COC(CO)C(O)C2)c(=O)[nH]c1=O (configuration not stated)
- MIC [1]: > 50 mg/L
- MIC (E6SM [2]): 0.38 mg/L (≈ 1.36 µM)
- MCC (E6SM [5]): > 400 µg/mL
- MIC (E6SM [3]): 16 mg/L (≈ 57.1 µM)
- MIC (E6SM [4]): 48 mg/L (≈ 171 µM)

Structure (SMILES): C=Cc1cn(C2COC(CO)C(O)C2)c(=O)[nH]c1=O (configuration not stated)
- MIC [1]: > 50 mg/L
- MIC (E6SM [2]): 0.075 mg/L (≈ 0.28 µM)
- MCC (E6SM [5]): > 400 µg/mL
- MIC (E6SM [3]): 9.6 mg/L (≈ 35.8 µM)
- MIC (E6SM [4]): 240 mg/L (≈ 895 µM)

Structure (SMILES): O=c1[nH]c(=O)n(C2COC(CO)C(O)C2)cc1-c1cccs1 (configuration not stated)
- MIC [1]: > 50 mg/L
- MIC (E6SM [2]): 240 mg/L (≈ 740 µM)
- MCC (E6SM [5]): > 400 µg/mL
- MIC (E6SM [3]): 240 mg/L (≈ 740 µM)
- MIC (E6SM [4]): 240 mg/L (≈ 740 µM)

Structure (SMILES): O=c1[nH]c(=O)n(C2COC(CO)C(O)C2)cc1I (configuration not stated)
- MIC [1]: > 40 mg/L
- MIC (E6SM [2]): 0.025 mg/L (≈ 0.0679 µM)
- MCC (E6SM [5]): > 400 µg/mL
- MIC (E6SM [3]): 0.5 mg/L (≈ 1.36 µM)
- MIC (E6SM [4]): > 400 mg/L

Structure (SMILES): Nc1nc2c(ncn2COCCO)c(=O)[nH]1 [ACYCLOVIR]
- MIC (E6SM [2]): 0.075 mg/L (≈ 0.333 µM)
- MCC (E6SM [5]): > 200 µg/mL
- MIC (E6SM [3]): 0.38 mg/L (≈ 1.69 µM)
- MIC (E6SM [4]): 1.92 mg/L (≈ 8.53 µM)

Structure (SMILES): O=c1[nH]c(=O)n([C@H]2C[C@H](O)[C@@H](CO)O2)cc1/C=C/Br [BRIVUDINE]
- MIC (E6SM [2]): 0.015 mg/L (≈ 0.045 µM)
- MCC (E6SM [5]): > 200 µg/mL
- MIC (E6SM [3]): > 80 mg/L
- MIC (E6SM [4]): 3.2 mg/L (≈ 9.61 µM)
